The source of these data is US8637499B2, “Benzoxazepines as inhibitors of PI3K/mTOR and methods of their use and manufacture” (Exelixis, Inc., priority 2009, dated 2014).

What is called IC50 is the concentration that inhibits the measured activity by half.

One assay has as its target mTORC1 (mTOR/GbL/Raptor) (Homo sapiens, UniProt P42345). In words: mTOR/GbL/Raptor (mTORC1) ELISA Assay. Format: biochemical. Particulars: 0.2 nM mTORC1, 10 μM ATP, 50 nM NHis-tagged 4E-BP1; phosphorylation of 4E-BP1; read-out: IC50. In a few lines: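 mTORC1 (0.2 nM) phosphorylated NHis-tagged 4E-BP1 (50 nM) with 10 μM ATP in 20 mM Hepes pH 7.2, 10 mM MnCl2, for 120 min at ambient temperature. Product was captured on Ni-chelate plates and detected with anti-phospho-4E-BP1 plus HRP secondary antibody by chemiluminescence.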
In general terms: ELISA stands for enzyme-linked immunosorbent assay.

The next assay addresses PI3Kα (Homo sapiens, UniProt P42336). Description: PI3K Biochemical Assays (ATP consumption, luciferase-luciferin chemiluminescence). As to conditions: PI3Kα 1.5 nM, ATP 1 μM, PIP2 10 μM; percent of ATP consumed. A digest of the protocol:
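Kinase activity read as percent ATP consumed via luciferase-luciferin chemiluminescence. 1.5 nM enzyme, 1 μM ATP, 10 μM PIP2 in 50 mM Tris pH 7.5, 1 mM EGTA, 10 mM MgCl2, 1 mM DTT, 0.03% CHAPS; ~2 h at ambient temperature, ATP consumption kept to 40-60%.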

Sequence of PI3Kα (P42336 whole entry): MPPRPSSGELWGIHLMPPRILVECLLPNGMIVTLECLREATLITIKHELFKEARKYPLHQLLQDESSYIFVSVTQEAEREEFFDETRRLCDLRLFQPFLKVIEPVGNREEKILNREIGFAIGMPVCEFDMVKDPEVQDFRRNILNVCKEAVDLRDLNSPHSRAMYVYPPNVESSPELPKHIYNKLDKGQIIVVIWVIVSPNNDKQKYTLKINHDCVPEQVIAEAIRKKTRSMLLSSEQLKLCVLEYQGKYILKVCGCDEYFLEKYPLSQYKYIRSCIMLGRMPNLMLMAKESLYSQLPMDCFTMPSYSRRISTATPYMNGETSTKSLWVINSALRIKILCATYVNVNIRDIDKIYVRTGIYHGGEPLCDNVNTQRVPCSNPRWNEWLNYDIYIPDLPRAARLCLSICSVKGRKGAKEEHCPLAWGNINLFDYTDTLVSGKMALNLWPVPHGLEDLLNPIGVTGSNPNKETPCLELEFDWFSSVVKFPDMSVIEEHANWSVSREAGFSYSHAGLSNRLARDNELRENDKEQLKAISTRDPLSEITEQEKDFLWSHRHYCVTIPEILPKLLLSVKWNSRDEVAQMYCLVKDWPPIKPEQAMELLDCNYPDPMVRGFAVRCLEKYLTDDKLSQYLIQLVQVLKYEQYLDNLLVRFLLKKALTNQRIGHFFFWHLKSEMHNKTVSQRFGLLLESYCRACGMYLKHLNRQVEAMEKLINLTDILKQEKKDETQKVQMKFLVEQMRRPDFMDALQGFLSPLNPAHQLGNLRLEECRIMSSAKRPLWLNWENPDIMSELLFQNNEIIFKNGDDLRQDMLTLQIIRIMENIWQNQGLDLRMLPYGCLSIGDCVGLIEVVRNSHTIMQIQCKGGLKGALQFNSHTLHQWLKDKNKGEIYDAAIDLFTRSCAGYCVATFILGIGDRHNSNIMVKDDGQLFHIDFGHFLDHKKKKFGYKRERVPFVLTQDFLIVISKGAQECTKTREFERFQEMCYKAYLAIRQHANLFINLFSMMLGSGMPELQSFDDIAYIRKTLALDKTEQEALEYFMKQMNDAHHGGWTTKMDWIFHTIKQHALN
Sequence of PI3Kα (P27986 whole entry partner): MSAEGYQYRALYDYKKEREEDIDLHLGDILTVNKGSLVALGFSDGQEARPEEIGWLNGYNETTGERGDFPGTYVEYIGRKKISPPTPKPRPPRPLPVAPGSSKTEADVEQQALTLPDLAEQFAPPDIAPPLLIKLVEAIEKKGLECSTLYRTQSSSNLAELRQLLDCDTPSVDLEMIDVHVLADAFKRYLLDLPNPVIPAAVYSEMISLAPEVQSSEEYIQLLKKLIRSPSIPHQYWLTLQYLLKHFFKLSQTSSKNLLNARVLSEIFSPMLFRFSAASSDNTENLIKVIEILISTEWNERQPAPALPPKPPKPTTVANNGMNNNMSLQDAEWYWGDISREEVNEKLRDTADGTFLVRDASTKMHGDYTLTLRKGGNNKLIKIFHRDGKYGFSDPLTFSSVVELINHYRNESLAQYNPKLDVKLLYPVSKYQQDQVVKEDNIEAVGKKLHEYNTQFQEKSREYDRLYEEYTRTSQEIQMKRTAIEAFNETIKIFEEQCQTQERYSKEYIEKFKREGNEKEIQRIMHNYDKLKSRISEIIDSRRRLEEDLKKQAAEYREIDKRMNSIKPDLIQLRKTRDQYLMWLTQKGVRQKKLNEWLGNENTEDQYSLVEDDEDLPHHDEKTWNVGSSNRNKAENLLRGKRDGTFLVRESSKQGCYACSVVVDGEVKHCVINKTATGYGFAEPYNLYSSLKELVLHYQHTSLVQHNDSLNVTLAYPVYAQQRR

Turning to `CCNc1nc2ncc(-c3ccc4c(c3)CN(C(=O)N3[C@@H]5CC[C@H]3C[C@](O)(C(F)(F)F)C5)CCO4)cc2[nH]1` [Compound 179, 8-({7-[2-(ethylamino)-1H-imidazo[4,5-b]pyridin-6-yl]-2,3-dihydro-1,4-benzoxazepin-4(5H)-yl}carbonyl)-3-(trifluoromethyl)-8-azabicyclo[3.2.1]octan-3-(endo)-ol], the IC50 was not above 50 nM on mTORC1 (mTOR/GbL/Raptor) and not above 75 nM against PI3Kα.

`COC(=O)Nc1nc2ccc(-c3ccc4c(c3)CN(C(=O)N3C5CCC3CC(=O)C5)CCO4)cc2[nH]1` [Compound 25, methyl (6-{4-[(3-oxo-8-azabicyclo[3.2.1]oct-8-yl)carbonyl]-2,3,4,5-tetrahydro-1,4-benzoxazepin-7-yl}-1H-benzimidazol-2-yl)carbamate]: the IC50 at mTORC1 (mTOR/GbL/Raptor) lay within 50 to 250 nM; at PI3Kα it was 200 to 500 nM.

Take `Cc1nc2ccc(-c3ccc4c(c3)CN(C(=O)N3CCC(F)(F)CC3c3ccccc3)CCO4)cc2[nH]1` (centres unmarked) [Compound 138, 4-[(4,4-difluoro-2-phenylpiperidin-1-yl)carbonyl]-7-(2-methyl-1H-benzimidazol-6-yl)-2,3,4,5-tetrahydro-1,4-benzoxazepine]: the values for the IC50 at mTORC1 (mTOR/GbL/Raptor) and against PI3Kα were 50 to 250 nM and 500 to 1000 nM, respectively.

Turning to `Cc1nc2ccc(-c3ccc4c(c3)CN(C(=O)N3CC[C@@H]5CCCC[C@H]5C3)CCO4)cc2[nH]1` (racemic) [Compound 80, (±)-7-(2-methyl-1H-benzimidazol-6-yl)-4-[(4aS,8aR)-octahydroisoquinolin-2(1H)-ylcarbonyl]-2,3,4,5-tetrahydro-1,4-benzoxazepine], the values for the IC50 on mTORC1 (mTOR/GbL/Raptor) and on PI3Kα were 250 to 700 nM and 1000 to 3000 nM, respectively.

On to `Cc1nc2ccc(-c3ccc4c(c3)CN(C(=O)N3CCCC3Cc3ccccc3)CCO4)cc2[nH]1` (centres unmarked) [Compound 94, 7-(2-methyl-1H-benzimidazol-6-yl)-4-{[2-(phenylmethyl)pyrrolidin-1-yl]carbonyl}-2,3,4,5-tetrahydro-1,4-benzoxazepine], for which the IC50 on mTORC1 (mTOR/GbL/Raptor) lay in the range of 50 to 250 nM; against PI3Kα, 1000 to 3000 nM.

Turning to `CC(=O)Nc1nc2ccc(-c3ccc4c(c3)CN(C(=O)N3CCC(CF)CC3)CCO4)cc2[nH]1` [Compound 50, N-[5-(4-{[4-(fluoromethyl)piperidin-1-yl]carbonyl}-2,3,4,5-tetrahydro-1,4-benzoxazepin-7-yl)-1H-benzimidazol-2-yl]acetamide], the IC50 at mTORC1 (mTOR/GbL/Raptor) is 250 to 700 nM; at PI3Kα, 500 to 1000 nM.

For the molecule `Cc1nc2ccc(-c3ccc4c(c3)CN(C(=O)N3CC5CCCC5C3)CCO4)cc2[nH]1` (centres unmarked) [Compound 84, 4-(hexahydrocyclopenta[c]pyrrol-2(1H)-ylcarbonyl)-7-(2-methyl-1H-benzimidazol-6-yl)-2,3,4,5-tetrahydro-1,4-benzoxazepine], the IC50 lay in the range of 50 to 250 nM on mTORC1 (mTOR/GbL/Raptor) and 200 to 500 nM against PI3Kα.

Consider `Cc1nc2ccc(-c3ccc4c(c3)CN(C(=O)N3CCCCC3c3ccc(F)c(F)c3)CCO4)cc2[nH]1` (centres unmarked) [Compound 114, 4-{[2-(3,4-difluorophenyl)piperidin-1-yl]carbonyl}-7-(2-methyl-1H-benzimidazol-6-yl)-2,3,4,5-tetrahydro-1,4-benzoxazepine], for which the values for the IC50 on mTORC1 (mTOR/GbL/Raptor) and on PI3Kα were not above 50 nM and not above 75 nM, respectively.

Consider `COC(=O)Nc1nc2ccc(-c3ccc4c(c3)CN(C(=O)N3CCC(C(F)F)CC3)CCO4)cc2[nH]1` [Compound 19, methyl [6-(4-{[4-(difluoromethyl)piperidin-1-yl]carbonyl}-2,3,4,5-tetrahydro-1,4-benzoxazepin-7-yl)-1H-benzimidazol-2-yl]carbamate], for which the IC50 is 50 to 250 nM at mTORC1 (mTOR/GbL/Raptor) and 200 to 500 nM at PI3Kα.

Regarding `Cc1nc2ccc(-c3ccc4c(c3)CN(C(=O)N3CC5CCC3C5)CCO4)cc2[nH]1` (centres unmarked) [Compound 107, 4-(2-azabicyclo[2.2.1]hept-2-ylcarbonyl)-7-(2-methyl-1H-benzimidazol-6-yl)-2,3,4,5-tetrahydro-1,4-benzoxazepine], the half-maximal inhibitory concentration (IC50) is 250 to 700 nM at mTORC1 (mTOR/GbL/Raptor) and 500 to 1000 nM at PI3Kα.

In the case of `CCOC(=O)[C@H]1CCCN(C(=O)N2CCOc3ccc(-c4ccc5nc(C)[nH]c5c4)cc3C2)C1` [Compound 74, ethyl (3S)-1-{[7-(2-methyl-1H-benzimidazol-6-yl)-2,3-dihydro-1,4-benzoxazepin-4(5H)-yl]carbonyl}piperidine-3-carboxylate], the IC50 was in the range of 250 to 700 nM at mTORC1 (mTOR/GbL/Raptor) and 1000 to 3000 nM against PI3Kα.

As for `Cc1nc2ccc(-c3ccc4c(c3)CN(C(=O)N3CC=C(c5ccccc5)CC3)CCO4)cc2[nH]1` [Compound 157, 7-(2-methyl-1H-benzimidazol-6-yl)-4-[(4-phenyl-3,6-dihydropyridin-1(2H)-yl)carbonyl]-2,3,4,5-tetrahydro-1,4-benzoxazepine], the IC50 lay in the range of 50 to 250 nM at mTORC1 (mTOR/GbL/Raptor) and 200 to 500 nM against PI3Kα.

In the case of `CC1CCN(C(=O)N2CCOc3ccc(-c4cncs4)cc3C2)CC1` [Compound 8, 4-[(4-methylpiperidin-1-yl)carbonyl]-7-(1,3-thiazol-5-yl)-2,3,4,5-tetrahydro-1,4-benzoxazepine], the IC50 on mTORC1 (mTOR/GbL/Raptor) lay in the range of 250 to 700 nM; against PI3Kα, 1000 to 3000 nM.

For the molecule `O=C1CCN(C(=O)N2CCOc3ccc(-c4ccc(-c5ncc[nH]5)cc4)cc3C2)[C@@H](c2ccc(F)cc2)C1` [Compound 56, (2R)-2-(4-fluorophenyl)-1-({7-[4-(1H-imidazol-2-yl)phenyl]-2,3-dihydro-1,4-benzoxazepin-4(5H)-yl}carbonyl)piperidin-4-one], the half-inhibitory concentration (IC50) on mTORC1 (mTOR/GbL/Raptor) is not above 50 nM; at PI3Kα it was not above 75 nM.

As to `Cc1nc2ccc(-c3ccc4c(c3)CN(C(=O)N3CCCCCCC3)CCO4)cc2[nH]1` [Compound 167, 4-(azocan-1-ylcarbonyl)-7-(2-methyl-1H-benzimidazol-6-yl)-2,3,4,5-tetrahydro-1,4-benzoxazepine], the figures for the IC50 on mTORC1 (mTOR/GbL/Raptor) and against PI3Kα were 700 to 2600 nM and 1000 to 3000 nM, respectively.

As for `COC(=O)Nc1nc2ncc(-c3ccc4c(c3)CN(C(=O)N3CCC(=O)CC3c3ccc(F)cc3)CCO4)cc2[nH]1` (centres unmarked) [Compound 37, methyl [6-(4-{[2-(4-fluorophenyl)-4-oxopiperidin-1-yl]carbonyl}-2,3,4,5-tetrahydro-1,4-benzoxazepin-7-yl)-1H-imidazo[4,5-b]pyridin-2-yl]carbamate], the IC50 is 50 to 250 nM on mTORC1 (mTOR/GbL/Raptor) and not above 75 nM against PI3Kα.

Turning to `COC(=O)Nc1nc2ncc(-c3ccc4c(c3)CN(C(=O)N3CCC(C#N)CC3)CCO4)cc2[nH]1` [Compound 40, methyl (6-{4-[(4-cyanopiperidin-1-yl)carbonyl]-2,3,4,5-tetrahydro-1,4-benzoxazepin-7-yl}-1H-imidazo[4,5-b]pyridin-2-yl)carbamate], the results for the IC50 on mTORC1 (mTOR/GbL/Raptor) and against PI3Kα were 50 to 250 nM and 200 to 500 nM, respectively.

Consider `COC(=O)Nc1nc2ccc(-c3ccc4c(c3)CN(C(=O)N3CCC(CF)CC3)CCO4)cc2[nH]1` [Compound 13, methyl [6-(4-{[4-(fluoromethyl)piperidin-1-yl]carbonyl}-2,3,4,5-tetrahydro-1,4-benzoxazepin-7-yl)-1H-benzimidazol-2-yl]carbamate], for which the values for the IC50 at mTORC1 (mTOR/GbL/Raptor) and on PI3Kα were 50 to 250 nM and 75 to 200 nM, respectively.

With `Cc1nc2ccc(-c3ccc4c(c3)CN(C(=O)N3CCC(S(C)(=O)=O)CC3)CCO4)cc2[nH]1` [Compound 102, 7-(2-methyl-1H-benzimidazol-6-yl)-4-{[4-(methylsulfonyl)piperidin-1-yl]carbonyl}-2,3,4,5-tetrahydro-1,4-benzoxazepine], the IC50 on mTORC1 (mTOR/GbL/Raptor) fell in the range of 50 to 250 nM; against PI3Kα, 500 to 1000 nM.

In the case of `CC(F)(F)C1CCN(C(=O)N2CCOc3ccc(-c4cnc5nc(N)[nH]c5c4)cc3C2)CC1` [Compound 42, 6-(4-{[4-(1,1-difluoroethyl)piperidin-1-yl]carbonyl}-2,3,4,5-tetrahydro-1,4-benzoxazepin-7-yl)-1H-imidazo[4,5-b]pyridin-2-amine], the IC50 at mTORC1 (mTOR/GbL/Raptor) was not above 50 nM; against PI3Kα, not above 75 nM.

For the molecule `Cc1nc2ccc(-c3ccc4c(c3)CN(C(=O)N3CCC(c5ccccc5)C3)CCO4)cc2[nH]1` (centres unmarked) [Compound 98, 7-(2-methyl-1H-benzimidazol-6-yl)-4-[(3-phenylpyrrolidin-1-yl)carbonyl]-2,3,4,5-tetrahydro-1,4-benzoxazepine], the IC50 on mTORC1 (mTOR/GbL/Raptor) was in the range of 50 to 250 nM; on PI3Kα, 500 to 1000 nM.

Consider `Cc1nc2ccc(-c3ccc4c(c3)CN(C(=O)N3CCCCC3c3cccc(F)c3)CCO4)cc2[nH]1` (centres unmarked) [Compound 81, 4-{[2-(3-fluorophenyl)piperidin-1-yl]carbonyl}-7-(2-methyl-1H-benzimidazol-6-yl)-2,3,4,5-tetrahydro-1,4-benzoxazepine], for which the results for the IC50 at mTORC1 (mTOR/GbL/Raptor) and at PI3Kα were not above 50 nM and not above 75 nM, respectively.

Take `COC(=O)Nc1nc2ccc(-c3ccc4c(c3)CN(C(=O)N3CCC(=O)CC3c3ccc(F)cc3)CCO4)cc2[nH]1` (centres unmarked) [Compound 14, methyl [6-(4-{[2-(4-fluorophenyl)-4-oxopiperidin-1-yl]carbonyl}-2,3,4,5-tetrahydro-1,4-benzoxazepin-7-yl)-1H-benzimidazol-2-yl]carbamate]: the IC50 is 50 to 250 nM on mTORC1 (mTOR/GbL/Raptor) and not above 75 nM against PI3Kα.

In the case of `O=C(N1CCOc2ccc(-c3cnc4nc[nH]c4c3)cc2C1)N1[C@@H]2CC[C@H]1C[C@](O)(C(F)(F)F)C2` [Compound 178, 8-{[7-(1H-imidazo[4,5-b]pyridin-6-yl)-2,3-dihydro-1,4-benzoxazepin-4(5H)-yl]carbonyl}-3-(trifluoromethyl)-8-azabicyclo[3.2.1]octan-3-(endo)-ol], the IC50 lay in the range of 50 to 250 nM on mTORC1 (mTOR/GbL/Raptor) and 200 to 500 nM at PI3Kα.

For `Nc1nc2ccc(-c3ccc4c(c3)CN(C(=O)N3CCC(CF)CC3)CCO4)cc2[nH]1` [Compound 26, 6-(4-{[4-(fluoromethyl)piperidin-1-yl]carbonyl}-2,3,4,5-tetrahydro-1,4-benzoxazepin-7-yl)-1H-benzimidazol-2-amine], the IC50 is not above 50 nM on mTORC1 (mTOR/GbL/Raptor) and 200 to 500 nM against PI3Kα.
